Laboratory results from patent US20240025918A1, “KRAS G12D Inhibitors” (Jacobio Pharmaceuticals Co., Ltd, priority 2020, published 2024).

What was measured:
[1] = test system: AGS cells expressing KRAS G12D; assay: Phospho-ERK1/2(THR202/TYR204) HTRF assay; type: cell-based; conditions: Homo sapiens; Phospho-ERK1/2 in AGS cells, 2 hours incubation
Method: AGS cells expressing KRAS G12D were cultured in F12K medium (Gibco) containing 10% fetal bovine serum (Gibco). The AGS cells in culture medium were seeded in 96-well plates at a concentration of 40,000 cells/well and then put in a 37° C./5% CO2 cell incubator to incubate overnight. The next day, culture medium was removed and the compound diluted in assay medium (F12K, 0.1% FBS) was added in each well. After 2 hours incubation in a 37° C./5% CO2 cell incubator, the assay medium in 96-well plates was removed, then 50 μL of 1× blocking reagent-supplemented lysis buffer (Cisbio) was added and the plates were incubated at 25° C. for 45 min with shaking. 10 μL of cell lysates from the 96-well plates were transferred to a 384-well plate (Greiner) containing 2.5 μL/well HTRF® pre-mixed antibodies (Cisbio 64AERPEH). Incubate 4 hours at 25° C. and then read HTRF signals on Tecan Spark multimode microplate reader. The data were analyzed using a 4-parameter logistic model to calculate IC50 values.

AsPC-1 = assay: Cell growth inhibition assay, AsPC-1 (CellTiter-Glo); type: cell-based; conditions: Homo sapiens, ASPC1, 144 h; AsPC-1 cell viability, 6 days incubation
Method: AsPC-1 cultured in RPMI-1640 medium (Gibco) containing 10% fetal bovine serum (Gibco). Cells in culture medium were plated in 96-well plates at a concentration of 1000 cells/well (100 μL/well) and allowed to attach overnight.
(§1) The next day, compounds were diluted in culture medium and added to the plates. After 6 days incubation in a 37° C./5% CO2 cell incubator, the cell viability was detected by CellTiter-Glo® Luminescent Cell Viability Assay kit (Promega). Luminescent signals were read on Tecan Spark multimode microplate reader and analyzed using a 4-parameter logistic model to calculate IC50 values.

[2] = molecular target: T1, GppNp-loaded HIS-KRAS(G12D, aa 1-169) and cRAF RBD (Homo sapiens, UniProt P01116, G12D); assay: GTP-KRAS and cRAF interaction assay (HTRF); type: biochemical; conditions: 2 hours at 25° C.
T1 construct: GppNp-loaded HIS-KRAS(G12D, aa 1-169)
Method: GppNp-loaded HIS-KRAS(G12D, aa 1-169) was pre-incubated with a compound in the presence of 200 μM GTP in a 384-well plate (Greiner) for 15 min, then cRAF RBD(GST tag, aa 50-132, CreativeBioMart), MAb Anti GST-d2 (Cisbio) and MAb Anti 6HIS-Tb cryptate Gold (Cisbio) were added to the assay wells (Final concentration: 2.0 nM GppNp-loaded HIS-KRAS(G12D), 100 μM GTP, 35 nM cRAF RBD, 1 μg/mL MAb Anti GST-d2, 52.5 ng/mL MAb Anti 6HIS-Tb cryptate Gold) and incubated for 2 hours at 25° C. Wells containing same percent of DMSO served as vehicle control, and wells without KRAS served as low control. HTRF signals were read on Tecan Spark multimode microplate reader and HTRF ratios were calculated under manufacturer's instructions. The percent of activation of compounds treated wells were normalized between vehicle control and low control (% Activation=(HTRF ratioCompound treated−HTRF ratioLow control)/(HTRF ratioVehicle control−HTRF ratioLow control)*100%). Then the data were analyzed by fitting a 4-parameter logistic model or calculating in Excel to calculate IC50 values.

AGS = assay: Cell growth inhibition assay, AGS (CellTiter-Glo); type: cell-based; conditions: Homo sapiens, 144 h; AGS cell viability, 6 days incubation
Method: AGS cultured in F12K medium (Gibco) containing 10% fetal bovine serum (Gibco). Cells in culture medium were plated in 96-well plates at a concentration of 500 cells/well (100 μL/well) and allowed to attach overnight.
as §1

[3] = molecular target: T2, GDP-loaded HIS-KRAS(G12D, aa 1-169) (Homo sapiens, UniProt P01116, G12D); assay: SOS1 catalyzed nucleotide exchange assay (TR-FRET); type: biochemical; conditions: 4 hours at 25° C.
T2 construct: GDP-loaded HIS-KRAS(G12D, aa 1-169)
Method: GDP-loaded HIS-KRAS(G12D, aa 1-169) was pre-incubated with a compound in the presence of 10 nM GDPin a 384-well plate (Greiner) for 15 min, then purified SOS1 ExD(Flag tag, aa 564-1049), BODIPY™ FL GTP (Invitrogen) and MAb (monoclonal antibody) Anti 6HIS-Tb cryptate Gold (Cisbio) were added to the assay wells (Final concentration: 1.5 nM GDP-loaded HIS-KRAS(G12D), 5 nM GDP, 0.5 μM SOS1 ExD, 80 nM BODIPY™ FL GTP, 52.5 ng/mL MAb Anti 6HIS-Tb cryptate Gold) and incubated for 4 hours at 25° C. Wells containing same percent of DMSO served as vehicle control, and wells without KRAS served as low control. TR-FRET signals were read on Tecan Spark multimode microplate reader. The parameters were F486: Excitation 340 nm, Emission 486 nm, Lag time 100 μs, Integration time 200 μs; F515: Excitation 340 nm, Emission 515 nm, Lag time 100 μs, Integration time 200 μs. TR-FRET ratios for each individual wells were calculated by equation: TR-FRET ratio=(Signal F515/Signal F486)*10000. The percent of activation of compounds treated wells were normalized between vehicle control and low control (% Activation=(TR-FRET ratioCompound treated−TR-FRET ratioLow control)/(TR-FRET ratioVehicle control−TR-FRET ratioLow control)*100%). Then the data were analyzed by fitting a 4-parameter logistic model or calculating in Excel to calculate IC50 values.

T2 sequence (P01116 1-169 isoform P01116-2 G12D): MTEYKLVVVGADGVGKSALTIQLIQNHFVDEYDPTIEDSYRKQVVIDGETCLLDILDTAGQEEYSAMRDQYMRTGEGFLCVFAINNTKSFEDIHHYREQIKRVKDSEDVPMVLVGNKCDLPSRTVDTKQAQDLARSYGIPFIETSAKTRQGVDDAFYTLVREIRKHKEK
T1 sequence (P01116 1-169 isoform P01116-2 G12D): as above

Structure (SMILES) | IC50 [1] [nM] | IC50 (AsPC-1) [nM] | IC50 [2] [nM] | IC50 (AGS) [nM] | IC50 [3] [nM]
C#Cc1c(F)ccc2cc(O)cc(-c3ccc4c(N5CC6CCC(C5)N6)nc(OCC5(CN6C7CCC6COC7)CC5)nc4c3F)c12 [Compound 7] | 3.53 | 72.2 | 27.2 | 5.66 | 6.27
C#Cc1cccc2cc(O)cc(-c3ccc4c(N5CC6CCC(C5)N6)nc(OCC5(CN6CC7CCC(C6)O7)CC5)nc4c3F)c12 [Compound 8] | 21.2 | 55.3 | 307 | 31.6 | 16.8
C#Cc1cccc2cc(O)cc(-c3ccc4c(N5CC6CCC(C5)N6)nc(OCC5(CN6CC7CC6CO7)CC5)nc4c3F)c12 (stereo not drawn) [Compound 9] | 2.59 | 138 | 62 | 10.5 | 7.77
C#Cc1cccc2cc(O)cc(-c3ccc4c(N5CC6CCC(C5)N6)nc(OCC5(CN6C7CCC6COC7)CC5)nc4c3F)c12 [Compound 10] | 6.18 | 57.6 | 77.3 | 11.1 | 12.1
C#Cc1cccc2cc(O)cc(-c3c(F)cc4c(N5CC6CCC(C5)N6)nc(OCC5(CN6CCC7(CCO7)CC6)CC5)nc4c3F)c12 [Compound 11] | 9.49 | 214 | 86.6 | 15.7 | 31.6
C#Cc1cccc2cc(O)cc(-c3c(F)cc4c(N5CC6CCC(C5)N6)nc(OCC5(CN6CCC7(CC6)COC7)CC5)nc4c3F)c12 [Compound 12] | 1.94 | 83.2 | 80.8 | 3.69 | 14.2
C#Cc1cccc2cc(O)cc(-c3c(F)cc4c(N5CC6CCC(C5)N6)nc(OCC5(CN6CCC7(C6)CC7(F)F)CC5)nc4c3F)c12 (stereo not drawn) [Compound 14] | 182 | 26.5 | 79.2 | 10.7 | 4.36
C#Cc1cccc2cc(O)cc(-c3c(F)cc4c(N5CC6CCC(C5)N6)nc(OCC5(CN6CCc7cccnc7C6)CC5)nc4c3F)c12 [Compound 15] | 68.9 | 97.3 | 157 | 13.9 | 6.06
C#Cc1cccc2cc(O)cc(-c3c(F)cc4c(N5CC6CCC(C5)N6)nc(OCC5(CN6Cc7cccnc7C6)CC5)nc4c3F)c12 [Compound 17] | 56.3 | 158 | 273 | 11.8 | 1.99
C#Cc1cccc2cc(O)cc(-c3c(F)cc4c(N5CC6CCC(C5)N6)nc(OCC5(CN6CC7(COC7)C6)CC5)nc4c3F)c12 [Compound 19] | 19.8 | 710 | 66.9 | 12.9 | 2.27
C#Cc1cccc2cc(O)cc(-c3c(F)cc4c(N5CC6CCC(C5)N6)nc(OCC5(CN6CC7(CCC7)C6)CC5)nc4c3F)c12 [Compound 20] | 39.2 | 264 | 58.1 | 23.3 | 1.33
C#Cc1cccc2cc(O)cc(-c3c(F)cc4c(N5CC6CCC(C5)N6)nc(OCC5(CN6CC(OC)C6)CC5)nc4c3F)c12 [Compound 21] | 13.5 | 334 | 74.5 | 16.3 | 1.94
C#Cc1cccc2cc(O)cc(-c3c(F)cc4c(N5CC6CCC(C5)N6)nc(OCC5(CN6CC7(CCOCC7)C6)CC5)nc4c3F)c12 [Compound 22] | 6.95 | 413 | 40.2 | 19.7 | 1.39
C#Cc1cccc2cc(O)cc(-c3c(F)cc4c(N5CC6CCC(C5)N6)nc(OCC5(CN6CC7COCC7C6)CC5)nc4c3F)c12 (stereo not drawn) [Compound 24] | 2.48 | 36 | 25.2 | 3.66 | 1.26
C#Cc1cccc2cc(O)cc(-c3c(F)cc4c(N5CC6CCC(C5)N6)nc(OCC5(CN6CC7CCCC7C6)CC5)nc4c3F)c12 (stereo not drawn) [Compound 25] | 14.7 | 96.6 | 51 | 13.2 | 1.48
C#Cc1cccc2cc(O)cc(-c3c(F)cc4c(N5CC6CCC(C5)N6)nc(OCC5(CN6CC(C)(OC)C6)CC5)nc4c3F)c12 [Compound 27] | 19.3 | 533 | 190 | 29.3 | 9.61
C#Cc1cccc2cc(O)cc(-c3c(F)cc4c(N5CC6CCC(C5)N6)nc(OCC5(CN6CCC7(CC6)CC7)CC5)nc4c3F)c12 [Compound 28] | 26.2 | 98.6 | 52.5 | 8.37 | 1.76
C#Cc1cccc2cc(O)cc(-c3ccc4c(N5CC6CCC(C5)N6)nc(OCC5(CN6CCC7(CC6)CC7)CC5)nc4c3F)c12 [Compound 30] | 31.5 | 81.7 | 133 | 9.77 | 28.6
C#Cc1cccc2cc(O)cc(-c3ccc4c(N5CC6CCC(C5)N6)nc(OCC5(CN6CC(OC)C6)CC5)nc4c3F)c12 [Compound 31] | 13.4 | 215 | 108 | 26.2 | 23.2
C#Cc1cccc2cc(O)cc(-c3ccc4c(N5CC6CCC(C5)N6)nc(OCC5(CN6CC7CCCC7C6)CC5)nc4c3F)c12 (stereo not drawn) [Compound 32] | 34.8 | 67.1 | 93.1 | 8.82 | 35.5
C#Cc1cccc2cc(O)cc(-c3ccc4c(N5CC6CCC(C5)N6)nc(OCC5(CN6CC(C)(OC)C6)CC5)nc4c3F)c12 [Compound 33] | 12.8 | 151 | 126 | 15.3 | 31.6
C#Cc1cccc2cc(O)cc(-c3c(F)cc4c(N5CC6CCC(C5)N6)nc(OCC5(CN6CCC7(CCCCO7)C6)CC5)nc4c3F)c12 (stereo not drawn) [Compound 34] | 38.9 | 208 | 82.6 | 16.9 | 3.07
C#Cc1cccc2cc(O)cc(-c3c(F)cc4c(N5CC6CCC(C5)N6)nc(OCC5(CN6CCOCC67CCC7)CC5)nc4c3F)c12 [Compound 35] | 20.2 | 59.6 | 157 | 8.43 | 2.17
C#Cc1cccc2cc(O)cc(-c3c(F)cc4c(N5CC6CCC(C5)N6)nc(OCC5(CN6C[C@H]7C[C@@H]6CO7)CC5)nc4c3F)c12 [Compound 36] | 3.07 | 77.4 | 35.1 | 8.71 | 2.1
